Earlier results, collected in patent US20210186870A1, “IMPROVED CANNABINOID BIOAVAILABILITY” (EMERALD HEALTH TH[…] INC., priority 2018, published 2021).
Like-named read-outs stand apart in the source and are kept apart here.

Compound: CCCCCc1cc(O)c2c(c1)OC(C)(C)[C@@H]1CCC(C)=C[C@@H]21 [THC, tetrahydrocannabinol]
- bioavailability of THC (from inhaled cannabis smoke): 2-56%
- bioavailability of THC (orally consumed cannabis): 4-20%
